In PubChem BioAssay (NCI):
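Tested at 5 concentrations; 48 h exposure; 96-well plates; endpoints linearly interpolated, else capped at highest concentration. GI50 marks 50% less growth. At the TGI there is no net growth.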

Assays:
Assay in all cases: DTP human tumour cell line panel, 48 h
RPMI-8226 leukemia = system: RPMI-8226 leukemia
ACHN renal = system: ACHN renal
SN12C renal = system: SN12C renal
RXF 393 renal = system: RXF 393 renal
PC-3 prostate = system: PC-3 prostate
SF-295 CNS = system: SF-295 CNS
CAKI-1 renal = system: CAKI-1 renal
SK-MEL-2 melanoma = system: SK-MEL-2 melanoma
K-562 leukemia = system: K-562 leukemia
SF-268 CNS = system: SF-268 CNS

Structure (SMILES) | GI50 (RPMI-8226 leukemia) [µM] | TGI (RPMI-8226 leukemia) [µM] | GI50 (ACHN renal) [µM] | TGI (ACHN renal) [µM] | GI50 (SN12C renal) [µM] | TGI (SN12C renal) [µM] | GI50 (RXF 393 renal) [µM] | TGI (RXF 393 renal) [µM] | GI50 (PC-3 prostate) [µM] | TGI (PC-3 prostate) [µM] | GI50 (SF-295 CNS) [µM] | TGI (SF-295 CNS) [µM] | GI50 (CAKI-1 renal) [µM] | TGI (CAKI-1 renal) [µM] | GI50 (SK-MEL-2 melanoma) [µM] | TGI (SK-MEL-2 melanoma) [µM] | GI50 (K-562 leukemia) [µM] | TGI (K-562 leukemia) [µM] | GI50 (SF-268 CNS) [µM] | TGI (SF-268 CNS) [µM]
O=C(Nc1nn2c(-c3cc(C(F)(F)F)cc(C(F)(F)F)c3)nnc2s1)C1CCCC1 | 0.368 | > 25.6 | 1.04 | > 31.6 | 0.454 | > 36.7 | 1.62 | > 33.9 | 0.603 | > 100 | 0.286 | 2.01 | 0.311 | > 65.2 | 0.529 | 2.4 | 0.488 | > 100 | 1.08 | > 100
CN1CCN(C(=O)COc2ccc(C34CC5CC(CC(C5)C3)C4)cc2)CC1 | 2.09 | 5.73 | 17.2 | 39.5 | 12.6 | 26.1 | 7.44 | 21.1 | 4.87 | 21.6 | 13.5 | 27.8 | 15.6 | 30.2 | 15.5 | 30.4 | 4.38 | 46.5 | 16.4 | 39.3
COC(=O)/C=C/c1cc(OC(C)=O)c2c(c1)[C@@H](C(=O)OC)[C@H](c1ccc(OC(C)=O)c(OC(C)=O)c1)O2 | 0.049 | – | 0.0705 | 52.5 | 0.121 | 99.7 | 0.075 | 3.03 | 0.316 | 54.7 | 0.285 | 11.4 | 0.314 | 44.7 | 0.268 | 70 | 0.0378 | > 49.2 | 0.301 | 57.5
COC1=CC(=O)C(C2(OC(C)C)OC(=O)C(Cl)=C2Cl)=CC1=O (centres undefined) | – | > 100 | – | > 100 | – | > 100 | – | > 100 | – | > 100 | – | > 100 | – | > 100 | – | 98.8 | – | 10.8 | – | > 100
c1ccc(Nc2ncc(-c3ccccc3)o2)cc1 | > 25 | > 25 | > 25 | > 25 | > 25 | > 25 | > 19.7 | > 25 | > 23.2 | > 25 | > 25 | > 25 | 17.8 | > 25 | > 25 | > 25 | > 25 | > 25 | > 25 | > 25
CC[C@@H](c1ccc(O)c(O)c1)[C@@H](CC)c1ccc(O)c(O)c1 | 4.31 | 26.3 | 1.94 | 4.03 | 19.3 | 41.3 | 2.57 | 7.59 | 12.4 | 28.9 | 27.4 | 87 | 2.77 | 9.43 | 30.7 | 77.8 | 3.38 | 94.5 | 17.9 | 37.5
COc1ccccc1NC(=O)c1cc2cc(Br)ccc2cc1O | 1.45 | 4.66 | 2.52 | 7.21 | 2.73 | 9.64 | 2.36 | 7.11 | 1.83 | 6.79 | 2.31 | 7.59 | 1.42 | 4.69 | 2.03 | 5.51 | 2.37 | > 100 | 3.21 | 16.2
CC1(C)[C@@H](NOCCCN)CC[C@]2(C)[C@H]3C(=O)C=C4[C@@H]5C[C@](C)(C(=O)O)CC[C@]5(C)CC[C@@]4(C)[C@]3(C)CC[C@@H]12 | 2.8 | 19.7 | 7.87 | 21.2 | 4.6 | 19.5 | 2.3 | 5.31 | 3.66 | 19 | 10.3 | 29.1 | 2.44 | 6.26 | 5.3 | 26.6 | 2.57 | 12.1 | 8.92 | 21.6
O=C(Nc1cccc(C(F)(F)F)c1)Nc1cccc(C(F)(F)F)c1 | 0.382 | 5.6 | 0.422 | 7.6 | 0.923 | 5.24 | 1.49 | 4.35 | 0.374 | 12.5 | 0.323 | 1.57 | 1.81 | 11.2 | 1.84 | 4.73 | 0.431 | 10.3 | 2.1 | 10.9
Br[Se]c1ccccn1 | – | 60.9 | – | 29.9 | – | 33.1 | – | 31 | – | 30 | – | 17 | – | 33 | – | 30.1 | – | 72 | – | 32.2
O=C(NC1CCCCC1)NS(=O)(=O)c1ccc(N2N=C3c4ccccc4CC3C2c2ccc(Cl)cc2)cc1 (centres undefined) | 3.57 | 22.6 | 13.4 | 31.9 | 16.8 | 32.6 | 23.2 | 87.5 | 4.05 | 18.8 | 15.9 | 43.9 | 12.8 | 31.8 | 24.4 | 80.4 | 6.71 | 22.4 | 6.78 | 34.9
C=C1C(=O)O[C@H]2[C@H]1CC/C(CNC(=O)c1cc3ccccc3[nH]1)=C\CC[C@@]1(C)O[C@@H]21 | 1.02 | 3.88 | 1.26 | 3.07 | 1.79 | 4.85 | 1.01 | 2.52 | 2.03 | 4.78 | 6.45 | 19.5 | 1.27 | 4.26 | 1.88 | 4.29 | 0.642 | 4.92 | 1.6 | 3.67
COc1c2ccccc2c(OC)c2[nH]c(=O)ccc12 | 12.6 | > 100 | 7.92 | > 100 | 2.13 | > 21.2 | 16.3 | > 100 | 5.53 | > 43.7 | 1.44 | 3.29 | 16.2 | > 90.6 | 4.92 | > 75.8 | 6.39 | > 100 | 9.51 | > 100
COCCn1cc(-c2nc(-c3cc4cccnc4[nH]3)cs2)c2cc(OC)ccc21 | 3.94 | > 36.2 | 2.61 | > 100 | 4.64 | > 100 | 0.95 | 5.41 | 3.13 | 13.3 | 2.24 | 6.54 | 3.01 | > 82.4 | 3.05 | 12.8 | 3.48 | > 27.3 | 3.82 | > 100
CC(=O)N[C@@H](Cc1ccc(OP(=O)(O)O)cc1)C(=O)N[C@H]1CCC(=O)N2CCC[C@@H](C(=O)Nc3cccc4ccccc34)N2C1=O | > 25 | > 25 | > 25 | > 25 | > 25 | > 25 | > 25 | > 25 | > 25 | > 25 | > 25 | > 25 | > 25 | > 25 | > 25 | > 25 | > 25 | > 25 | > 25 | > 25
